Measured values taken from ChEMBL document CHEMBL3632553, “New fluorinated agonists for targeting the sphingosin-1-phosphate receptor 1 (S1P(1))” (2015).
Calls of active or inactive are those of the source. The calls are words filed in the database; no cut-off is given here.

Experiments:
[1] = target: Sphingosine 1-phosphate receptor 1 (Homo sapiens) (UniProt P21453); assay: Agonist activity at human sphingosin-1-phosphate receptor 1 expressed in CHO cells assessed as phosphorylation status of p44/42 MAPK after 2.5 mins by Western blotting; format: cell-based
Sphingosine 1-phosphate receptor 1 (Homo sapiens), sequence (P21453 whole entry): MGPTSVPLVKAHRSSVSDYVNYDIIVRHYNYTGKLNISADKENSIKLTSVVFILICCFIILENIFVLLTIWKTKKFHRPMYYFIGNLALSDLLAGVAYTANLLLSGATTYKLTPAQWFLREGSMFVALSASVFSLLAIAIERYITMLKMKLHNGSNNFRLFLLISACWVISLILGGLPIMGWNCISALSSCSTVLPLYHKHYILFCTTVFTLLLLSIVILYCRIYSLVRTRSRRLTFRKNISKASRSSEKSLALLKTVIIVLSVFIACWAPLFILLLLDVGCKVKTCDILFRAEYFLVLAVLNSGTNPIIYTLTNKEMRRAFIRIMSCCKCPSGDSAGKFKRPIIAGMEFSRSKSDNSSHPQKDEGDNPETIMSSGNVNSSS

[2] = target: Sphingosine 1-phosphate receptor 1 (Homo sapiens) (UniProt P21453); assay: Agonist activity at human sphingosin-1-phosphate receptor 1 expressed in CHO cells assessed as phosphorylation status of p44/42 MAPK after 5 mins by Western blotting; format: cell-based
[3] = target: Sphingosine 1-phosphate receptor 1 (Homo sapiens) (UniProt P21453); assay: Agonist activity at human sphingosin-1-phosphate receptor 1 expressed in CHO cells assessed as phosphorylation status of p44/42 MAPK after 10 mins by Western blotting; format: cell-based
Mus musculus [4] = assay: Immunosuppressive activity in mouse assessed as reduction of WBC level in peripheral blood assessed per 10^6 cells at 1.25 mg/kg, ip after 24 hrs by flow cytometry (reference value: 8.94 +/- 0.59 ml); format: functional
Mus musculus [5] = assay: Immunosuppressive activity in mouse assessed as reduction of CD4+ level in peripheral blood assessed per 10^6 cells at 1.25 mg/kg, ip after 24 hrs by flow cytometry (reference value: 0.73 +/- 0.07 ml); format: functional
Mus musculus [6] = assay: Immunosuppressive activity in mouse assessed as reduction of CD8+ level in peripheral blood assessed per 10^6 cells at 1.25 mg/kg, ip after 24 hrs by flow cytometry (reference value: 0.48 +/- 0.05 ml); format: functional
Mus musculus [7] = assay: Immunosuppressive activity in mouse assessed as reduction of B-cells level in peripheral blood assessed per 10^6 cells at 1.25 mg/kg, ip after 24 hrs by flow cytometry (reference value: 4.72 +/- 0.53 ml); format: functional
Mus musculus [8] = assay: Immunosuppressive activity in mouse assessed as induction of lymphopenia at 1.25 mg/kg, ip after 24 hrs by flow cytometry; format: functional

SMILES | Activity [1] | Activity [2] | Activity [3] | cell count (Mus musculus [4]) | cell count (Mus musculus [5]) | cell count (Mus musculus [6]) | cell count (Mus musculus [7]) | Activity (Mus musculus [8]) [%]
NC(CO)(CO)CCCCCCCCCCc1cccc(S(F)(F)(F)(F)F)c1 | Active | Active | Active |  |  |  |  | 
CCCCCCCCc1ccc(CCC(N)(CO)CO)cc1 [FINGOLIMOD] |  |  |  | 3.69 10^6 cells/mL | 0.02 10^6 cells/mL | 0.04 10^6 cells/mL | 0.61 10^6 cells/mL | 97
NC(CO)(CO)CCCCCCCCCCc1c(F)c(F)c(F)c(F)c1F | Active | Active | Active |  |  |  |  | 
NC(CO)(CO)CCCCCCCCCCCCCCC(F)F | Active | Active | Active | 1.67 10^6 cells/mL | 0.03 10^6 cells/mL | 0.04 10^6 cells/mL | 0.29 10^6 cells/mL | 95

Further lines, with some results ahead:

Activity [1] | Activity [2] | Activity [3] | SMILES | cell count (Mus musculus [4]) | cell count (Mus musculus [5]) | cell count (Mus musculus [6]) | cell count (Mus musculus [7]) | Activity (Mus musculus [8]) [%]
Active | Active | Active | NC(CO)(CO)CCCCCCCCCCc1ccc(F)cc1 |  |  |  |  | 
Active | Active | Active | NC(CO)(CO)CCCCCCCCCCc1ccc(C(F)(F)F)cc1 |  |  |  |  | 
Active | Active | Active | NC(CO)(CO)CCCCCCCCCCc1ccc(S(F)(F)(F)(F)F)cc1 |  |  |  |  | 
Active | Active | Active | NC(CO)(CO)CCCCCCCCCCc1ccccc1 |  |  |  |  | 
